# Results reported in US20250382239A1, “COMPOSITIONS FOR ENHANCING NITROGEN FERTILIZERS BY INCORPORATING ANTI-OXIDANT MOIETIES AND METHODS FOR USE THEREOF” (Verdesian Life Sciences U.S., LLC, priority 2022, published 2025).
# Test system: urease enzyme
# Assay: Draeger tube NH3 volatilization screening of urease inhibitor compositions applied on urea prills on soil
# Design: NH3 Draeger tube reading: unit not given here
# Settings: for urease enzyme inhibitory properties: exposed to soil alone or in combination with urea-containing fertilizer
# Procedure: tBHQ (main active ingredient (AI)), solvents, additives (co-Actives) were obtained from commercial vendors. Draeger tube protocol was developed and used soils from NCSU Ag research facility at Oxford, North Carolina. Samples were prepared by co-dissolution in the appropriate solvent by rolling on a sample roller for 2-4 hours at ambient temperature and allowed to stand over weekend to make sure there was no haziness and/or precipitate that developed. Typical sample size was 4-4.5 g in a 12 mL cylindrical glass vial.
# The following candidates were tBHQ+[x co-Active+y Solvent] where x and y varied.
compound,measurement,setting,value
NC(N)=O [Urea],NH3 Draeger tube reading,"Round 10 (Table 11), 18 hrs",0
same,NH3 Draeger tube reading,"Round 10 (Table 11), 24 hrs",0
same,NH3 Draeger tube reading,"Round 10 (Table 11), 42 hrs",125
same,NH3 Draeger tube reading,"Round 10 (Table 11), 48 hrs",150
same,NH3 Draeger tube reading,"Round 10 (Table 11), 66 hrs",150
same,NH3 Draeger tube reading,"Round 10 (Table 11), 90 hrs",150
same,NH3 Draeger tube reading,"Round 10 (Table 11), 120 hrs",150
same,NH3 Draeger tube reading,"Round 10 (Table 11), 187 hrs",150
same,NH3 Draeger tube reading,"Round 10 (Table 11), 210 hrs",150
same,NH3 Draeger tube reading,"Round 10 (Table 11), 266 hrs",150
same,NH3 Draeger tube reading,"Round 10 (Table 11), 288 hrs",150
same,NH3 Draeger tube reading,"Round 10 (Table 11), 330 hrs",150
same,NH3 Draeger tube reading,"Round 10 (Table 11), 354 hrs",150
same,NH3 Draeger tube reading,"Round 10 (Table 11), 381 hrs",150
same,NH3 Draeger tube reading,"Round 10 (Table 11), […]",150
same,NH3 Draeger tube reading,"Round 11 (Table 12), 16 hrs",0
same,NH3 Draeger tube reading,"Round 11 (Table 12), 24 hrs",0
same,NH3 Draeger tube reading,"Round 11 (Table 12), 40 hrs",12
same,NH3 Draeger tube reading,"Round 11 (Table 12), 48 hrs",36
same,NH3 Draeger tube reading,"Round 11 (Table 12), 64 hrs",125.4
same,NH3 Draeger tube reading,"Round 11 (Table 12), 88 hrs",150
same,NH3 Draeger tube reading,"Round 11 (Table 12), 160 hrs",150
same,NH3 Draeger tube reading,"Round 11 (Table 12), 184 hrs",150
same,NH3 Draeger tube reading,"Round 11 (Table 12), 232 hrs",150
same,NH3 Draeger tube reading,"Round 11 (Table 12), 256 hrs",150
same,NH3 Draeger tube reading,"Round 11 (Table 12), […]",150
same,NH3 Draeger tube reading,"Round 12 (Table 13), 15 hrs",0
same,NH3 Draeger tube reading,"Round 12 (Table 13), 23 hrs",0
same,NH3 Draeger tube reading,"Round 12 (Table 13), 39 hrs",31
same,NH3 Draeger tube reading,"Round 12 (Table 13), 48 hrs",118
same,NH3 Draeger tube reading,"Round 12 (Table 13), 66 hrs",150
same,NH3 Draeger tube reading,"Round 12 (Table 13), 90 hrs",150
same,NH3 Draeger tube reading,"Round 12 (Table 13), 111 hrs",150
same,NH3 Draeger tube reading,"Round 12 (Table 13), 159 hrs",150
same,NH3 Draeger tube reading,"Round 12 (Table 13), 192 hrs",150
same,NH3 Draeger tube reading,"Round 12 (Table 13), 216 hrs",150
same,NH3 Draeger tube reading,"Round 12 (Table 13), 239 hrs",150
same,NH3 Draeger tube reading,"Round 12 (Table 13), 260 hrs",150
same,NH3 Draeger tube reading,"Round 12 (Table 13), 283 hrs",150
same,NH3 Draeger tube reading,"Round 12 (Table 13), 304 hrs",150
same,NH3 Draeger tube reading,"Round 12 (Table 13), 327 hrs",150
same,NH3 Draeger tube reading,"Round 12 (Table 13), 357 hrs",150
same,NH3 Draeger tube reading,"Round 12 (Table 13), 375 hrs",150
same,NH3 Draeger tube reading,"Round 12 (Table 13), […]",150
"Oc1ccc(O)cc1 [hydroquinone, reference compound]",urease enzyme inhibitory properties,,significantly less efficacious urease enzyme inhibition properties
CC(C)(C)c1cc(O)ccc1O [tert-butylhydroquinone],urease enzyme inhibitory properties,,strong urease enzyme inhibitory properties
